Test system: Pseudomonas aeruginosa
Assay: Burn wound infection model (mouse superficial skin model, thermal injury), log reduction of Pseudomonas aeruginosa
Format: in vivo, Swiss albino mice
Details: orally 25 mg/kg body weight, day 6
Protocol: Swiss albino mice were put into six groups and their backs were shaven. Thermal injury was induced in the shaven area by applying a heated brass rod on the back of the animals for 15 seconds to 20 seconds. For establishment of a topical infection, an inoculum containing approximately 2×10^5 bacteria (Pseudomonas aeruginosa) was injected subcutaneously (100 μL) on the sites of the burns. One hour post infection, the mice were treated using 100 mg of cream formulations of different drug concentrations. In case of all the cream formulations, 100 mg cream was applied topically twice daily for 5 days. One of the groups of mice was given Levofloxacin orally at 25 mg/kg body weight as a reference standard.

## C[C@H]1COc2c(N3CCN(C)CC3)c(F)cc3c(=O)c(C(=O)O)cn1c23 [Levofloxacin]
  Log reduction of microbial count: 5.53 log10

From patent US9433580B2 (priority 2011, dated 2016)
